Consider eight compounds from patent US20240076699A1, “BIOSYNTHESIS OF SUBSTITUTED COMPOUNDS AND CANNABINOIDS” (Invizyne Technologies, Inc., priority 2022, published 2024).

For series [1] the following is noted: results in an inactive metabolite; cited from earlier work.
Series [2] can be described thus: Solubility in nonane overlay versus water. It counts as physicochemical.
Series [3] in a line: nLC-MS/MS of CBGA and dCBGA samples after one hour. It counts as in vitro ADME. How it is done: (§1) Additional samples were subjected to nano-scale liquid chromatographic tandem mass spectrometry (nLC-MS/MS). Samples were prepared using 2 μL of standard and 198 μL of 50:50 water:acetonitrile in 0.1% formic acid. A 1 μL sample was injected.
For series [4], the target named is Bovine serum albumin (BSA) (Bos taurus, UniProt P02769). Nature of the series: BSA binding seen during extraction. The note with it: reaction mixture extraction. From the text:
In one embodiment, upon formation of the THCA compound of the present invention, the compound is purified to isolate the produced THCA. The extraction of CBGA and THCA into ethylacetate formed an emulsion which could only be partially broken with the addition of hexane. Bovine serum albumin (BSA) binds both CBGA and THCA tightly and thus not all of the product is recoverable in the organic phase of the purification process. However, acid precipitation of the BSA with the addition of 1% HCl allows for the denaturation of BSA and subsequent unbinding of the CBGA and THCA to allow extraction and purification. In one embodiment, the HCl is added directly to the reaction mixture, which is then incubated for about 10 minutes to assure full denaturation of BSA. The mixture is then centrifuged for about 30 minutes at 4000 g. After centrifuging the mixture, the CBGA and THCA coprecipitate into pelleted form. The pellet is then washed with water until the water reaches a neutral pH. The pellet is then resuspended in methanol using vigorous vortexing. The methanol mixture was rotavapped over a water bath at 40° C., and the resulting oil was resuspended in ethanol. The THCA then precipitates as a brown oil. The reaction mixture is then filtered and washed with water and then resuspended in hexane. The hexane was then rotavapped to remove mass added to the product by excess […]. […]

Series [5] can be described thus: nLC-MS/MS comparison of CBGA and dCBGA after one hour (degradation). It counts as in vitro ADME. The note with it: matrix not stated. How it is done:
as §1
Table 10 compares nLC-MS/MS data for the CBGA samples and dCBGA samples after one hour.
FIG. 26 illustrates a graph comparing CBGA and dCBGA. Sample 1, Sample 2, and Sample 3 are shown left to right for both CBGA and dCBGA.

Series [6] has as its target T1, methionine adenosyltransferase (MAT) from Thermococcus kodakarensis (tk) (Thermococcus kodakarensis, UniProt Q5JF22).
T1 sequence (Q5JF22 1-405): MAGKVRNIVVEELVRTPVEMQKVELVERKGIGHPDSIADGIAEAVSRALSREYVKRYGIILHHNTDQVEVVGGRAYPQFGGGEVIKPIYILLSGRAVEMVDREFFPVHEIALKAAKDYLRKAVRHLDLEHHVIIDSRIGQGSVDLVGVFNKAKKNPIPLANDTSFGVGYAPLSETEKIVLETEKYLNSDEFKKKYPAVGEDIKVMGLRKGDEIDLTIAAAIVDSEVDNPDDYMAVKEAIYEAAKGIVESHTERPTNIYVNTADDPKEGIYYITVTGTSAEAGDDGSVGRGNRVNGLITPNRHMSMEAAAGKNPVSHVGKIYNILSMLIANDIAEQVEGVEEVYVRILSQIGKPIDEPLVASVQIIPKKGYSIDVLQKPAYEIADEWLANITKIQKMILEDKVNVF
As to conditions: 5 mM met or d3-met, 10 μM MAT, 1 h room temperature.

Series [7] has as its target T2, methionine adenosyltransferase (MAT) from Methanocaldococcusjannaschii (mj) (Methanocaldococcus jannaschii, UniProt Q58605).
T2 sequence (Q58605 1-406): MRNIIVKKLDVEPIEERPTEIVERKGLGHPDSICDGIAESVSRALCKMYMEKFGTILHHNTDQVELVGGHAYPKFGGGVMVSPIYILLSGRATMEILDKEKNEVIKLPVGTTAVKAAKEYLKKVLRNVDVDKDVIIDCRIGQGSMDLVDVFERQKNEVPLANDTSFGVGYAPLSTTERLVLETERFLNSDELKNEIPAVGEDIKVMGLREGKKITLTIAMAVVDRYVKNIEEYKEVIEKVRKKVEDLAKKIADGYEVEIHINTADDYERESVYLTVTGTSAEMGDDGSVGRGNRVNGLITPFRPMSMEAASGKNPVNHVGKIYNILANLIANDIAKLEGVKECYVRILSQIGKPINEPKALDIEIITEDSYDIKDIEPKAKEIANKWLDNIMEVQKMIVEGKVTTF
As to conditions: 5 mM met or d3-met, 10 μM MAT, 1 h room temperature.

Sequence of Bovine serum albumin (BSA) (P02769 25-607): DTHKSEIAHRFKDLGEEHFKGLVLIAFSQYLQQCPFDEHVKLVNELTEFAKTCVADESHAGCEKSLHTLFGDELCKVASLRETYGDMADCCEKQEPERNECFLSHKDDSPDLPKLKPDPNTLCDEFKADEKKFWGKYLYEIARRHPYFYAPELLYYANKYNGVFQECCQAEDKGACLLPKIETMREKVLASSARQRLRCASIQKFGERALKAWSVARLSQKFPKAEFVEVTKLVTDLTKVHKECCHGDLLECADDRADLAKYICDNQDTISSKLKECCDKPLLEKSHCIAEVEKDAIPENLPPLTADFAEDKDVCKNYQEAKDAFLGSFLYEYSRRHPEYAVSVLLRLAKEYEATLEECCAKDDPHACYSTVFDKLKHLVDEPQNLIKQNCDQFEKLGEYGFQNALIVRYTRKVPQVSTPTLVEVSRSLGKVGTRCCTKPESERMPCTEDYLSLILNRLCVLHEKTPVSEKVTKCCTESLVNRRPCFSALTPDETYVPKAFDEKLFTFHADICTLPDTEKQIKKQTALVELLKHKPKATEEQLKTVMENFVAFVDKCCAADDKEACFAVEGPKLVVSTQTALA

For `C=C(C)[C@@H]1CCC(C)=C[C@H]1c1c(O)cc(CCCCC)cc1O` [CBD, cannabidiol], the “metabolites with cleavage of the 5′ pentyl tail” value in series [1] is listed as roughly 25%.

In the case of `CCCCCc1cc(O)c(C/C=C(\C)CCC=C(C)C)c(O)c1C(=O)O` [CBGA, cannabigerolic acid, reference compound], the “solubility in water compared with nonane” value in series [2] was “more soluble in water than nonane”. The “degradation after one hour, CBGA compared with dCBGA” value in series [3] is listed as “CBGA is significantly more degraded after one hour than dCBGA”. Moreover, in series [4], the “binding by BSA” value is recorded as “tightly”.

Take `CCCCCc1cc(O)c(C/C=C(\C)CCC=C(C)C)c(O)c1C(=O)O` [CBGA, cannabigerolic acid]: the “degradation after one hour compared with dCBGA” value in series [5] is given as “significantly more degraded after one hour than dCBGA”.

Consider `CCCc1cc(O)c(C/C=C(\C)CCC=C(C)C)c(O)c1C(=O)O` [CBGVA, cannabierovarinic acid], for which the solubility in nonane result in series [2] is given as “limited solubility”.

Regarding `CCCCCc1cc2c(c(O)c1C(=O)O)[C@@H]1C=C(C)CC[C@H]1C(C)(C)O2` [THCA, tetrahydrocannabinolic acid], the “binding by BSA” value in series [4] is “tightly”.

Turning to `[2H]C([2H])([2H])SCC[C@H](N)C(=O)O` [d3-met, d3-L-methionine], the “MAT activity on substrate (Pi released per hour)” value in series [6] and in series [7] was “equally active” in each case.

As for `CCCCCc1cc(O)c(C/C=C(\C)CCC=C(C)C)c(O)c1C(=O)O` [dCBGA, d11-cannabigerolic acid], the “degradation after one hour, CBGA compared with dCBGA” value in series [3] is on record as “CBGA is significantly more degraded after one hour than dCBGA”.

Consider `CSCC[C@H](N)C(=O)O` [met, methionine, reference compound], for which the “MAT activity on substrate (Pi released per hour)” value in series [6] and in series [7] was “equally active” in each case.
